Source: PubChem BioAssay AID1645848
In brackets after ≈: the same amount, converted by molar mass.

Conditions: buffer; pH 7.4; 6.0 h; 150.0 µM

Structure (SMILES) | solubility kinetic
CO[C@@H]1[C@H](N(C)C(=O)c2ccccc2)C[C@H]2O[C@]1(C)n1c3ccccc3c3c4c(c5c6ccccc6n2c5c31)C(=O)NC4 | < 1 µg/mL
Fc1ccc(Nc2nc(-c3ccnc(N4CCCCC4)c3)nc3ccccc23)cc1F | < 1 µg/mL
NC(CO)(CO)CCc1ccc(Sc2cccc(OCc3ccccc3)c2)cc1Cl | < 1 µg/mL
Cc1ccc(-n2nc3c(=O)n(CCCC(=O)NC(C)c4ccccc4)nc(C)c3c2C)cc1 (configuration not stated) | 4.59 µg/mL (≈ 10.4 µM)
CCOc1ccc(CCNC(=O)c2cc3sccc3n2Cc2ccccc2)c(F)c1OCC | < 1 µg/mL
O=C(Nc1nc(-c2ccccc2)cs1)c1ccncc1NS(=O)(=O)c1ccc2ccccc2c1 | < 1 µg/mL
C[S+](=O)([O-])N1CCC(Cn2ccc3c(N4CCOCC4)nc(-c4cccc5[nH]ccc45)cc32)CC1 | < 1 µg/mL
O=C(Nc1ccccc1F)c1nc(S(=O)(=O)Cc2ccccc2F)ncc1Cl | 3.63 µg/mL (≈ 8.57 µM)
CC[C@@]1(O)C(=O)OCc2c1cc1n(c2=O)Cc2c-1nc1ccccc1c2CCNC(C)C | > 6 µg/mL
CS(=O)(=O)c1ccccc1-c1csc(N2CCC(C(N)=O)CC2)n1 | > 54 µg/mL
Fc1ccc(Nc2nccc(-c3ccncc3)n2)cc1F | 2.48 µg/mL (≈ 8.71 µM)
O=C(NCCN1CCOCC1)C1CC(=O)N(c2n[nH]c3cc(Br)ccc23)C1 (configuration not stated) | 32.5 µg/mL (≈ 74.5 µM)
S=C(NCCCc1cnc[nH]1)NCCCN(Cc1ccc(Cl)c(Cl)c1)c1ccc(Br)cn1 | < 1 µg/mL
COc1ccc2[nH]c(=O)c(-c3noc(-c4ccccc4)n3)cc2c1 | < 1 µg/mL
O=C(C1CCN(c2nc(-c3ccc(Br)cc3)cs2)CC1)N1CCNCC1 | > 64 µg/mL
COc1cccc(CN2CCCC(c3nc(-c4ccncc4)ncc3-c3ccccc3)C2)c1O (configuration not stated) | 4.29 µg/mL (≈ 9.47 µM)
Cc1ccc(S(=O)(=O)Nc2cnccc2C(=O)Nc2nc(-c3ccc(-c4ccccc4)cc3)cs2)cc1 | 0.487 µg/mL (≈ 0.925 µM)
C=C[C@]1(C)C[C@@H](OC(=O)CSC(C)(C)CNC(=O)[C@H](N)C(C)C)[C@]2(C)[C@H](C)CC[C@]3(CCC(=O)[C@H]32)[C@@H](C)[C@@H]1O | 36.6 µg/mL (≈ 64.8 µM)
COc1ccc2[nH]c(C[C@@H]3C[C@@H](C(C)C)[C@H](CNCc4ccccc4O)C=C3C)nc2n1 | 42.1 µg/mL (≈ 96.9 µM)
Cc1ccc(S(=O)(=O)Nc2cc(Cl)c(Cl)cc2C(=O)Nc2nc(-c3ccccc3)cs2)cc1 | < 1 µg/mL
COc1ccc(-c2csc(NC(=O)c3ccccc3NS(=O)(=O)c3ccc(C)cc3)n2)cc1 | < 1 µg/mL
CC[C@H]1/C=C\C=C/C[C@@H](C)[C@H](O)[C@@](C)(O)C(=O)[C@@H](C)[C@H](O)[C@@H](C)C(=O)[C@@H](C)[C@H](O)[C@@H](C)/C=C\C(=O)O[C@@H]2[C@H](C)[C@H](CC1)O[C@]1(CC[C@H](C)[C@H](C[C@@H](C)O)O1)[C@H]2C | < 1 µg/mL
CCCCN(CC)CCCNC(=O)c1ccc2c(c1)N(Cc1ccc(C)cc1)C(=O)c1ccccc1S2 | > 76 µg/mL

Structure (SMILES) | solubility kinetic
Cc1ccc(C(=O)NC2CCN(c3cnn(CC4CC4)c(=O)c3)CC2)cc1C | < 1 µg/mL
CC(C)c1nc2oc3c(NCCN(C)C)ncnc3c2c2c1COC(C)(C)C2 | > 57 µg/mL
CS(=O)(=O)N1CCN(c2nc(-c3ccc(Br)cc3)cs2)CC1 | < 1 µg/mL
Cc1nc2nc(NC(=O)c3ccc(C(C)(C)C)cc3)[nH]n2c(=O)c1Cl | 14.7 µg/mL (≈ 40.8 µM)
Oc1ccc(C(=S)N2CCN(c3cccc(Cl)c3)CC2)cc1 | < 1 µg/mL
CC(=O)NC(c1cccs1)c1cc(Br)c2cccnc2c1O (configuration not stated) | < 1 µg/mL
Clc1cccc(COc2cncc(N3CCNCC3)n2)c1 | > 45 µg/mL
CC(C)c1ccccc1-c1nc(NCc2ccc(-c3cccnc3)cc2)c2ccccc2n1 | < 1 µg/mL
COc1ccc(C2c3c(oc4ccc(Cl)cc4c3=O)C(=O)N2CCCN(C)C)cc1OC (configuration not stated) | > 67 µg/mL
CC(=O)N1CCC(NC(=O)c2nc(-c3ccccc3)cc3[nH]ccc23)CC1 | > 80 µg/mL
CCOc1ccc(NC(=O)c2ccc(F)c(S(=O)(=O)N(CC)Cc3ccccc3)c2)cc1 | < 1 µg/mL
c1cc(-c2cc(-c3ccncc3)c3cncn3c2)c2[nH]ncc2c1 | 2.43 µg/mL (≈ 7.8 µM)
Fc1ccc(-c2csc3ncnc(Sc4nnnn4-c4ccccc4)c23)cc1 | 0.705 µg/mL (≈ 1.73 µM)
CN(C)CCNC(=O)c1nc2nc(-c3ccccc3)c(-c3cccc(F)c3)cc2n1C | 51.3 µg/mL (≈ 123 µM)
Cc1ccc(-c2nnc(N3CCC(C(N)=O)CC3)s2)cc1 | 14.6 µg/mL (≈ 48.3 µM)
Cc1cccc(-n2cnc3cc(C(=O)N4CCCCC4)ccc32)c1 | > 47 µg/mL
Cc1nc(Nc2ncc(C(=O)Nc3c(C)cccc3Cl)s2)cc(N2CCN(CCO)CC2)n1 | 25.6 µg/mL (≈ 52.4 µM)
COc1ccc(-n2nc(C3CCN([S+](=O)([O-])c4cccc(C(F)(F)F)c4)CC3)[nH]c2=O)cc1 | < 1 µg/mL
Cc1ccccc1C(=O)N1CCc2cc(-c3ccnc(NC(=O)Cc4ccccc4)n3)ccc21 | 6.19 µg/mL (≈ 13.8 µM)
O=C(CCCc1ccc2cccnc2n1)NCc1cc(-c2ccc(F)c(C(F)(F)F)c2)no1 | 3.29 µg/mL (≈ 7.18 µM)
CCOc1ccc(CCNC(=O)c2cc3sccc3n2Cc2cccc(C)c2)cc1OCC | < 1 µg/mL
Cc1cccc(-n2cnc3cc(C(=O)N4CCCC(C(F)(F)F)C4)ccc32)c1 (configuration not stated) | 45.3 µg/mL (≈ 117 µM)
O=C(Nc1ccc(Cl)cc1)Nc1ccc(Cl)c(Cl)c1 | < 1 µg/mL

Structure (SMILES) | solubility kinetic
O=C(Nc1ccc(S(=O)(=O)N2CCN(Cc3ccccc3)CC2)cc1)c1cnccn1 | < 1 µg/mL
CC#CC(=O)N1CCC[C@H]1c1nc(-c2ccc(C(=O)Nc3ccccn3)cc2)c2c(N)nccn12 | > 69 µg/mL
Cc1cc(-c2nnc3n2CCCCC3)c(C)n1-c1cccc(Cl)c1 | 36.5 µg/mL (≈ 107 µM)
c1coc(-c2nc3ccncc3[nH]2)c1 | 13.9 µg/mL (≈ 75.1 µM)
CCc1nc2c(sc3nc4c(cc32)COC(C)(C)C4)c(=O)n1Cc1ccco1 | 6.22 µg/mL (≈ 15.7 µM)
NC[C@H](O)c1ccc(O)c(O)c1 | > 25 µg/mL
COc1cccc(Cn2c(=O)n(-c3cccc(Cl)c3C)c(=O)c3c4c(sc32)CN(C(C)=O)CC4)c1 | < 1 µg/mL
O=c1[nH]c(C2CCN(CC3CCCCC3)CC2)nn1Cc1ccccc1 | > 52 µg/mL
Cc1ccc(S(=O)(=O)N2CCCc3cc(NS(=O)(=O)c4ccccc4)ccc32)cc1 | < 1 µg/mL
Fc1cc(Nc2nc(-c3ccncc3)nc3ccccc23)ccc1-c1cccc(OC(F)F)c1 | < 1 µg/mL
Cc1cc(NS(=O)(=O)c2ccc(NC(=O)c3oc4ccccc4c3C)cc2)nc(C)n1 | < 1 µg/mL
CC1=C(C(=O)Nc2nncs2)C(c2ccccc2Br)N=C(Nc2nc3ccccc3o2)N1 (configuration not stated) | < 1 µg/mL
CC[C@H]1CN2CCc3cc(OC)c(OC)cc3[C@@H]2C[C@@H]1C[C@H]1NCCc2cc(OC)c(OC)cc21 | > 71 µg/mL
Cc1ccc(-c2cc(C(=O)Nc3ccc(-c4nn[nH]n4)cc3)c3ccccc3n2)cc1C | 7.58 µg/mL (≈ 18 µM)
O=C(NCCCCc1ccccc1)C1CCN(c2nc(-c3ccc(Br)cc3)cs2)CC1 | 7.06 µg/mL (≈ 14.2 µM)
N#Cc1cc(-c2nc(Nc3ccc(F)c(F)c3)c3ccccc3n2)ccn1 | < 1 µg/mL
Cc1ccc(N2CCN(c3cnn(-c4nc5ccccc5s4)c(=O)c3Cl)CC2C)cc1 (configuration not stated) | < 1 µg/mL
N#Cc1cccc(S(=O)(=O)Nc2cnccc2C(=O)Nc2nc(-c3ccccc3)cs2)c1 | 34.3 µg/mL (≈ 74.3 µM)
COc1ccccc1NC(=O)c1oc2ccccc2c1NC(=O)Cc1cccs1 | < 1 µg/mL
COc1ccc(O)c2c(=O)c3c(OC)cc4c(c3oc12)C1C=COC1O4 (configuration not stated) | < 1 µg/mL
CCOc1ccc(CCNC(=O)c2cc3ccccc3n2Cc2cccc(C)c2)cc1OCC | < 1 µg/mL
